Key:
[1] = Stability of the active ingredients in the formulation buffered to pH 5.5-6.5; format: physicochemical; conditions: pH 5.5-6.5 (lactic acid neutralized with sodium hydroxide) compared to more acidic or more basic conditions
Description: Preferably, the present formulation for topical use is in the form of a cream or a lotion, and preferably has a pH between 5.5 and 6.5, advantageously about 6.

[2] = tested on: complex regional pain syndrome type I; conditions: 50% DMSO applied topically, N-acetylcysteine taken orally; cited from earlier work
[3] = tested on: abdominal incisional wound subjected to radiation; conditions: oral and intra-peritoneal administration, model subjected to radiation; cited from earlier work

Row | Structure (SMILES) | stability [1] | efficacy in the treatment of complex regional pain syndrome type I [2] | effect on histological, biochemical and mechanical parameters of incisional wound healing [3]
1 | CC(=O)N[C@@H](CS)C(=O)O [N-acetylcysteine] | improved | equally efficient | effectiveness
2 | NC(N)=O [urea] | improved |  | 
3 | C[S+](C)[O-] [50% DMSO, DMSO] |  | equally efficient | 

From patent publication US20210052524A1, “N-ACETYLCYSTEINE AND UREA-BASED FORMULATION FOR THE TREATMENT OF DERMATOLOGICAL DISORDERS” (DERMALENA DI CALDERAN ANDREA, priority 2017, published 2021)
